Legend:
MERS-CoV PL^pro = conditions: read-out: IC50 against MERS-CoV PL^pro; cited from earlier work
SARS-CoV PL^pro = conditions: read-out: IC50 against SARS-CoV PL^pro; cited from earlier work
SARS-CoV-2 PL^pro [1] = molecular target: T1, SARS-CoV-2 PL^pro (Severe acute respiratory syndrome coronavirus 2, UniProt P0DTD1); test: Thermal shift binding assay; conditions: effect on stability of PL^pro
SARS-CoV-2 PL^pro [2] = molecular target: T1, SARS-CoV-2 PL^pro; format: biochemical; conditions: 200 nM PL^pro, 5 mM DTT, pH 7.5, 30 °C; highest concentration 60 μM
SARS-CoV-2 PL^pro [3] = molecular target: T1, SARS-CoV-2 PL^pro; test: cell-based

SMILES: Sc1ncnc2nc[nH]c12 [6-mercaptopurine]
- IC50 (MERS-CoV PL^pro): 26.9 µM
- IC50 (SARS-CoV PL^pro): 21.6 µM
- TSA binding result (in words) (SARS-CoV-2 PL^pro [1]): not active
- Validation FRET IC50 (SARS-CoV-2 PL^pro [2]): not active
- FlipGFP EC50 (SARS-CoV-2 PL^pro [3]): not active

SMILES: Nc1nc2nc[nH]c2c(=S)[nH]1 [6-thioguanine]
- IC50 (MERS-CoV PL^pro): 24.4 µM
- IC50 (SARS-CoV PL^pro): 5 µM
- TSA binding result (in words) (SARS-CoV-2 PL^pro [1]): did not show binding
- FlipGFP EC50 (SARS-CoV-2 PL^pro [3]): not active

SMILES: C[C@H]1COC2=C1C(=O)C(=O)c1c2ccc2c1CCCC2(C)C [Cryptotanshinone]
- TSA binding result (in words) (SARS-CoV-2 PL^pro [1]): destabilization
- FlipGFP EC50 (SARS-CoV-2 PL^pro [3]): not active

SMILES: Cc1cccc2c3c(ccc12)C1=C(C(=O)C3=O)[C@@H](C)CO1 [Dihydrotanshinone I]
- TSA binding result (in words) (SARS-CoV-2 PL^pro [1]): did not bind
- FlipGFP EC50 (SARS-CoV-2 PL^pro [3]): not active

SMILES: Cc1coc2c1C(=O)C(=O)c1c-2ccc2c1CCCC2(C)C [Tanshinone IIA]
- TSA binding result (in words) (SARS-CoV-2 PL^pro [1]): denaturation of the protein (no melting peak)
- FlipGFP EC50 (SARS-CoV-2 PL^pro [3]): not active
- EC50 (SARS-CoV-2 PL^pro [3]; FlipGFP EC50): > 20 µM

SMILES: Cc1coc2c1C(=O)C(=O)c1c-2ccc2c(C)cccc12 [Tanshinone I]
- TSA binding result (in words) (SARS-CoV-2 PL^pro [1]): destabilization
- FlipGFP EC50 (SARS-CoV-2 PL^pro [3]): not active

SMILES: COCCn1c2c([n+](Cc3cnccn3)c1C)C(=O)c1ccccc1C2=O [YM155]
- TSA binding result (in words) (SARS-CoV-2 PL^pro [1]): no effect
- Cytotoxicity in FlipGFP assay (in words) (293T cells): cytotoxic
- FlipGFP EC50 (SARS-CoV-2 PL^pro [3]): not conclusive

Reference: publication PMC8806001 (ACS Pharmacology & Translational Science, 2022)
